What was measured:
[1] = system: CT26 tumors induced by i.p. inoculation; experiment: CT26 colon cancer i.p. model, i.p. treatment (Example 1); format: in vivo, BALB/c mice; conditions: for tumor growth inhibition: i.p. treatment on days 3, 10 and 17, compared to PBS control
Procedure: (§1) Female BALB/c and C57BL/6 mice (6-7 weeks old) were purchased from the Jackson Laboratory. All animal studies were approved by and conducted according to the regulation of the Institutional Animal Care and Use Committee of the University of California, San Diego. CT26 cells were administered via the intraperitoneal (i.p.) and subcutaneous (s.c.) routes. […] Treatments were administered three times at weekly intervals. The body circumference and weight were recorded for 40 days at 2-day intervals and mice were euthanized when the circumference reached ˜8 cm. To establish the CT26 colon cancer s.c. model, CT26 cells (1.5×10^5 cells in 15 μL PBS) were mixed with 15 μL Matrigel (Corning) and injected s.c. into the left flank of BALB/c mice. […] The tumor volumes, calculated using the equation tumor width^2×tumor length)/2, and body weight were recorded for 40 days at 2-day intervals and mice were euthanized when the tumor volume reached ˜1500 mm^3.

s.c. CT26 tumors = experiment: CT26 colon cancer s.c. model, intratumoral treatment (Example 1); format: in vivo, BALB/c mice; conditions: i.t. treatment
Procedure: as §1

[2] = system: CT26 tumors induced by i.p. inoculation; conditions: reference [17]; cited from earlier work
RAW-Blue cells = RAW-Blue cells / Quanti-Blue SEAP assay, in vitro immunogenicity (Example 1); format: cell-based; set-up: dose or concentration left out as unconfirmed; conditions: 24 h
Procedure: RAW-Blue cells (InvivoGen) were grown in Dulbecco's Modified Eagle's Medium (DMEM) supplemented with 10% (v/v) heat-sterilized fetal bovine serum (FBS; Atlanta Biologicals) and 1% (v/v) penicillin/streptomycin (p/s; Thermo Fisher Scientific). Normocin ([…]) and zeocin ([…]) were also added according to the supplier's instructions (InvivoGen). CT26 cells obtained from the ATCC were grown in Roswell Park Memorial Institute (RPMI) 1640 medium and DMEM, respectively, each supplemented with 10% (v/v) FBS and 1% (v/v) p/s.
Lipopolysaccharide (LPS; InvivoGen) was used as a positive control. After the incubation, 20 μL of the supernatant was mixed with 180 μL of Quanti-Blue solution (InvivoGen) and incubated at room temperature for 6 h. The absorbance was then measured at 630 nm using a microplate reader (Tecan).

Row | Molecule | survival rate ([1]; compared to mice treated with CCMV or poly(I:C) alone) | tumor growth inhibition [1] | tumor volume (s.c. CT26 tumors; day 26) [mm^3] | impact on CT26 tumors (previous work) [2] | SEAP levels versus PBS-treated control (RAW-Blue cells) | body weight of CT26-bearing mice ([1]; weight gain is due to growth of the tumor) | tumor growth by day 26 (s.c. CT26 tumors) [fold]
1 | O=C1[O][Pt]2([NH][C@@H]3CCCC[C@H]3[NH]2)[O]C1=O [oxaliplatin] | slightly increased the survival rate | significantly inhibited tumor growth | ~233 |  |  |  | 
2 | ODN1826 |  |  |  | minimal impact |  |  | 
3 | polyinosinic:polycytidylic acid [poly(I:C)] |  | slight inhibitory effect, albeit not statistically significant |  |  | did not differ significantly | increased | 30

Reference: patent publication US20250302975A1, “METHODS AND COMPOSITIONS FOR AGONISING TLR3” (priority 2024, published 2025)
